Test results from patent US7704943B2, “Transglutaminase for inhibiting angiogenesis” (Aston University, priority 2000, dated 2010).

B1: recombinant tTGase: exogenous recombinant tissue transglutaminase used in the study of Haroon et al 1999 (protein, UniProt P21980 2-687, looked up)
Protein-glutamine …: AEELVLERCDLELETNGRDHHTADLCREKLVVRRGQPFWLTLHFEGRNYEASVDSLTFSVVTGPAPSQEAGTKARFPLRDAVEEGDWTATVVDQQDCTLSLQLTTPANAPIGLYRLSLEASTGYQGSSFVLGHFILLFNAWCPADAVYLDSEEERQEYVLTQQGFIYQGSAKFIKNIPWNFGQFEDGILDICLILLDVNPKFLKNAGRDCSRRSSPVYVGRVVSGMVNCNDDQGVLLGRWDNNYGDGVSPMSWIGSVDILRRWKNHGCQRVKYGQCWVFAAVACTVLRCLGIPTRVVTNYNSAHDQNSNLLIEYFRNEFGEIQGDKSEMIWNFHCWVESWMTRPDLQPGYEGWQALDPTPQEKSEGTYCCGPVPVRAIKEGDLSTKYDAPFVFAEVNADVVDWIQQDDGSVHKSINRSLIVGLKISTKSVGRDEREDITHTYKYPEGSSEEREAFTRANHLNKLAEKEETGMAMRIRVGQSMNMGSDFDVFAHITNNTAEEYVCRLLLCARTVSYNGILGPECGTKYLLNLNLEPFSEKSVPLCILYEKYRDCLTESNLIKVRALLVEPVINSYLLAERDLYLENPEIKIRILGEPKQKRKLVAEVSLQNPLPVALEGCTFTVEGAGLTEEQKTVEIPDPVEAGEEVKVRMDLLPLHMGLHKLVVNFESDKLKAVKGFRNVIIGPA

Assays:
ECV304 cells = assay: in vitro angiogenesis/tubulogenesis model, ECV304 cells co-cultured with C378 fibroblasts; type: cell-based, human
Source text: An in vitro system of angiogenesis/tubulogenesis was developed to evaluate the efficacy of TGase administration on angiogenesis. […] In the model cell system described below, ECV304 cells were co-cultured with the primary human dermal fibroblast cell line C378 (isolated from human foreskin), which provides the appropriate biochemical information to stimulate the differentiation of ECV304 to form capillary-like structures.
ECV304 cell lines S3 (a neomycin resistant transfected control cell line phenotypically similar to wild type cells) and B4 (a tTGase antisense transfected cell line [Jones, R. A., et al., 1997, J. Cell Sci. 110, 2461-2472]) and C378 were routinely cultured in Dulbecco's Modified Eagles Media (DMEM) supplemented with 2 mM glutamine and 10% (v/v) foetal calf serum (FCS). Cells were harvested by exposure to 0.25% (w/v) bovine trypsin in phosphate buffered saline (PBS) pH 7.4, and collected cells were washed in normal culture media, counted and seeded into the appropriate tissue culture vessel. Standard angiogenesis experiments were performed in 12-well cell culture plates, and 2×10^4 ECV304 cells and 2×10^4 C378 cells were seeded into 1 ml of normal growth media. For immunochemical staining experiment, 2×10^3 cells of each cell type were seeded into […] of growth medium in 8-well glass chamber slides. Co-cultures were incubated at 37° C. in a humidified atmosphere containing 5% (V/V) CO2, and tubules were allowed to develop spontaneously over a 14-day period, with regular changes of growth media every 72 hours.
For cultures treated with purified tTGase, a dose response with 1, 10 and 50 μg […] liver transglutaminase (gplTGase) was performed with two separate dosing regimes. gplTGase was activated by pre-incubation with 10 mM DTT on ice for one hour prior to its addition to cultures. The highest amount of DTT present in the cultures was 0.5 mm for the 50 μg gplTGase treatment, and control cultures were treated with DTT accordingly. In some experiments, cultures were treated with two administrations of exogenous enzyme on day 1 and day 4 of the experiment. Further studies extended the dose regime to include five gplTGase treatments, on days 1, 4, 7, 10 and 13.
Non-specific protein binding was blocked by incubating fixed cells with 300 μl of 3% (w/v) bovine serum albumin (BSA) overnight at 4° C. Blocked plates were then incubated with the primary antisera (see table 5), diluted in the above buffer, for 2 hours at 37° C. with gentle shaking. Next, plates were washed three times and incubated with the appropriate species-specific secondary antibody (see table 5) conjugated to Horseradish peroxidase (HRP) for 2 hours at 37° C. with gentle shaking. […]

rat dermal wound = conditions: addition of exogenous enzyme, rat dermal wound healing; cited from earlier work

| Molecule | microtubule formation (collagen type I, UEA-1 and tTGase staining) (ECV304 cells; 10 μM, compared to untreated cells) | microtubule formation (ECV304 cells; 100 μM) | microtubule formation (ECV304 cells; 200 μM) | angiogenesis (FIG. 4, tubules stained for collagen type I, UEA-1, tTGase) (ECV304 cells; standard angiogenesis inhibitor, positive control) | vessel length density (rat dermal wound) |
| --- | --- | --- | --- | --- | --- |
| Cc1ccc(C(=O)Nc2ccc(S(=O)(=O)O)c3cc(S(=O)(=O)O)cc(S(=O)(=O)O)c23)cc1NC(=O)c1cccc(NC(=O)Nc2cccc(C(=O)Nc3cc(C(=O)Nc4ccc(S(=O)(=O)O)c5cc(S(=O)(=O)O)cc(S(=O)(=O)O)c45)ccc3C)c2)c1 [suramin] | significantly reduced | completely eradicated | completely eradicated | inhibition of angiogenesis | – |
| B1 | – | – | – | – | increase in vessel length density |
